According to patent US20260176275A1, “VINYLPHOSPHONIC ACID-MODIFIED MRNA CAP ANALOG, METHOD FOR PREPARING SAME, AND USE THEREOF” (Jiangsu Synthgene Biotechnology Co., Ltd., priority 2022, published 2026):

Legend:
[1] = biological target: eukaryotic initiation factor (elF4E) (Homo sapiens, UniProt P06730); assay: Assay of binding ability to eukaryotic initiation factor (elF4E), Biacore T100; settings: cap analog to elF4E protein; running buffer pH 6.0 or 7.4; read-out: Binding constant (converted)
Method: Test method: Firstly, experimental samples, including the cap analog samples of Examples 1-7, compounds 10-13, 16, 17, 25, 31 and 34, and Comparative Example 1, were diluted with a running buffer (50 mM phosphate, 100 mM sodium chloride, and 0.01% vol/vol Tween 20, pH 6.0 or 7.4). The sample injection time was […], the sample injection flow rate was 20 L/min, and the dissociation time was […]. The residual samples were eluted with a regeneration buffer (10 mM HEPES, 150 mM NaCl, and 0.010% vol/vol Tween 20, pH 7.4) for 30 s at a flow rate of 30 μL/min. Finally, through analysis by Biacore T100 evaluation software (version 2.0.2), sensorgrams were generated and the binding constants were calculated.

T7 RNA polymerase [2] = biological target: T1, T7 RNA polymerase (Escherichia phage T7, UniProt P00573); assay: mRNA in-vitro transcription yield with cap analog (T7 IVT, Nanodrop One quantification); type: biochemical; settings: for Yield: mRNA from 20 μL IVT system, 1 μl 100 mM cap analog, 1 μg template, 37° C. 2 h; for in-vitro transcription yield compared with Comparative Example 1 (in words): text summary of Table 4
Method: (§1) In-vitro synthesis of mRNA cap analogs modified with vinylphosphonic acid: Firstly, a plasmid was linearized with NotI and digested at […] overnight. A DNA template was extracted. mRNAs were synthesized by in-vitro transcription using the vinylphosphonic acid-modified mRNA cap analogs of Examples 1-7 and compounds 10-13, 16, 17, 25, 31 and 34, and the cap analog of Comparative Example 1 as cap structures, respectively.
(§2) Note: During the experiment, the volume of the materials required for the system was calculated firstly, and then sample loading was performed. Firstly, sterile enzyme-free water was added into the system, and then 10× buffer, NTPs, and the cap analog were sequentially added. The mixture was uniformly mixed and then gently centrifuged, followed by addition of the nuclease inhibitor, the inorganic pyrophosphatase, the T7 RNA polymerase, and the linearized DNA template. The mixture was well mixed, then gently centrifuged, and incubated at 37° C. After 2 h, DNase I (1 U) was added, and the mixture was incubated at 37° C. for another 30 min to remove the DNA template. RNA purification was then performed (usually using the magnetic bead purification method). The purified mRNA was dissolved in sterile enzyme-free water, and then quantitative detection was performed by using Nanodrop One.

T7 RNA polymerase [3] = biological target: T1, T7 RNA polymerase; assay: IVT capping rate of mRNA by LC-MS after RNase H cleavage; type: biochemical; settings: for Capping rate: LC-MS of mRNA transcribed with the cap analog; for capping efficiency compared with Comparative Example 1 (in words): text summary of Table 4
Method: as §1, §2
Liquid chromatography-mass spectrometry (LC-MS) was used to detect the IVT capping rates of mRNAs with different starting cap analogs. Firstly, a labeled (usually biotin-labeled) DNA probe matched with the starting base of mRNA as the transcript product was required to be designed, and streptavidin-labeled magnetic beads were washed, and then incubated with the synthesized DNA probe, mRNA and 10× RNase H reaction buffer with slowly mixing at room temperature for 30 min. 20 L of RNase H (5 U/μL) was then added, and the mixture was incubated at 37° C. for 3 h, with uniform mixing every half hour. After the incubation was completed, the magnetic beads were cleaned, and then 100 μL of 75% methanol heated to 80° C. was added to the cleaned magnetic beads. The mixture was heated to 80° C. on a heating plate, held for 3 min, and then placed on a magnetic rack. The supernatant was pipetted and dried at room temperature for 45 min to 10 Lby using an evaporation centrifuge. The sample was then resuspended in 50 μL of 100 μM EDTA/1% MeOH for LC-MS analysis to determine the capping of RNA in the transcription reaction. Due to the significant difference in molecular weight between capped and uncapped bases, the capping rates of mRNA transcription initiated with different cap analogs can be determined by using the difference in molecular weight.

Chain of eukaryotic initiation factor (elF4E) (P06730 whole entry): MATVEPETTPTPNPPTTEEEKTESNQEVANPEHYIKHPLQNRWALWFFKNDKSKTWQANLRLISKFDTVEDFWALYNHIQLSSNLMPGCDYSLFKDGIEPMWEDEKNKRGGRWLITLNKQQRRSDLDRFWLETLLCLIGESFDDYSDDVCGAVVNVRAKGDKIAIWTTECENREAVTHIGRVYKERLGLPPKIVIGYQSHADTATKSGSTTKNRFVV
T1 sequence (P00573 whole entry): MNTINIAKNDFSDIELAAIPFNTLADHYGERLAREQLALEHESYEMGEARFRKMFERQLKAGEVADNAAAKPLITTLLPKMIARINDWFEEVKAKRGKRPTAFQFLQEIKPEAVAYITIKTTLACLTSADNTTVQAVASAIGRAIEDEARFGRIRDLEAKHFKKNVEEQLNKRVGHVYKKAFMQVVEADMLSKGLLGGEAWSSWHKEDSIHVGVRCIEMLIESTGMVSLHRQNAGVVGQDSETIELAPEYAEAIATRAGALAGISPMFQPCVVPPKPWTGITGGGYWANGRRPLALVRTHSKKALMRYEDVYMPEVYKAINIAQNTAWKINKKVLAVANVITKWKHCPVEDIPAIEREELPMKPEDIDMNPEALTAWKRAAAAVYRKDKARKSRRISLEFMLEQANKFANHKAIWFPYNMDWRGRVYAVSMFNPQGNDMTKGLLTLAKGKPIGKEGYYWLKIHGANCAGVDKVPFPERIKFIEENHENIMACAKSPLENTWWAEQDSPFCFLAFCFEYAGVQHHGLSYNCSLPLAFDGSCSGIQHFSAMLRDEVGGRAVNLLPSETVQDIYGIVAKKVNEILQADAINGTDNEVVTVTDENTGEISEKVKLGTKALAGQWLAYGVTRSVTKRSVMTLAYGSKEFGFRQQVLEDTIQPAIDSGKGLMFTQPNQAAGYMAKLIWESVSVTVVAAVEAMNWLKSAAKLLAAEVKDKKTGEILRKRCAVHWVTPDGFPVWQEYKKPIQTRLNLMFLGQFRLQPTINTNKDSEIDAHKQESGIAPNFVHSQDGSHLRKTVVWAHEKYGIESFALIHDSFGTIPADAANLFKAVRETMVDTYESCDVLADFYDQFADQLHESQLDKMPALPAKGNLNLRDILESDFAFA

SMILES	Kd [1]	Yield (T7 RNA polymerase [2])	in-vitro transcription yield compared with Comparative Example 1 (in words) (T7 RNA polymerase [2])	Capping rate (T7 RNA polymerase [3])	capping efficiency compared with Comparative Example 1 (in words) (T7 RNA polymerase [3])
COC1[C@@H](OP(=O)(O)/C=C/[C@H]2O[C@@H](n3cnc4c(=O)[nH]c(N)nc43)C(O)[C@H]2O)[C@@H](COP(=O)(O)OP(=O)(O)OP(=O)(O)/C=C\[C@H]2O[C@@H](n3c[n+](C)c4c(=O)[nH]c(N)nc43)[C@@H](O)C2O)O[C@H]1n1cnc2c(N)ncnc21 (stereo partly drawn) [Example 4]	377 nM	106 µg	significantly lower than those of Comparative Example 1	94.5%	significantly lower than those of Comparative Example 1
COC1C(OP(=O)(O)OC[C@H]2O[C@@H](n3ccc(=O)[nH]c3=O)C(O)C2O)[C@@H](COP(=O)(O)OP(=O)(O)OP(=O)(O)/C=C/[C@H]2O[C@@H](n3c[n+](C)c4c(=O)[nH]c(N)nc43)C(O)C2CNC(C)=O)O[C@H]1n1cnc2c(N)ncnc21 (stereo partly drawn) [Compound 17]	222 nM	122 µg	–	96.2%	–
COC1C(OP(=O)(O)OC[C@H]2O[C@@H](n3cnc4c(=O)[nH]c(N)nc43)C(O)C2O)[C@@H](COP(=O)(O)OP(=O)(O)OP(=O)(O)/C=C/[C@H]2O[C@@H](n3c[n+](C)c4c(=O)[nH]c(N)nc43)C(O)C2O)O[C@H]1n1cnc2c(N)ncnc21 (stereo partly drawn) [Example 2]	216 nM	125 µg	–	96.3%	–
COC1C(OP(=O)(O)OC[C@H]2O[C@@H](n3cnc4c(=O)[nH]c(N)nc43)C(O)C2O)[C@@H](/C=C\P(=O)(O)OP(=O)(O)OP(=O)(O)OC[C@H]2O[C@@H](n3c[n+](C)c4c(=O)[nH]c(N)nc43)C(O)C2CNC(C)=O)O[C@H]1n1cnc2c(N)ncnc21 (stereo partly drawn) [Compound 25]	224 nM	120 µg	–	96.1%	–
CCCC(=O)NCC1C(O)[C@H](n2c[n+](C)c3c(=O)[nH]c(N)nc32)O[C@@H]1/C=C/P(=O)(O)OP(=O)(O)OP(=O)(O)OC[C@H]1O[C@@H](n2cnc3c(N)ncnc32)C(OC)C1OP(=O)(O)OC[C@H]1O[C@@H](n2cnc3c(=O)[nH]c(N)nc32)C(O)C1O (stereo partly drawn) [Compound 34]	236 nM	117 µg	–	95.9%	–
COC1C(OP(=O)(O)OC[C@H]2O[C@@H](n3cnc4c(=O)[nH]c(N)nc43)C(O)C2O)[C@@H](COP(=O)(O)OP(=O)(O)OP(=O)(O)/C=C/[C@H]2O[C@@H](n3c[n+](C)c4c(=O)[nH]c(N)nc43)C(O)C2CNC(C)=O)O[C@H]1n1cnc2c(N)ncnc21 (stereo partly drawn) [Compound 12]	214 nM	123 µg	–	96.6%	–
COC1C(OP(=O)(O)OC[C@H]2O[C@@H](n3cnc4c(=O)[nH]c(N)nc43)C(O)C2O)[C@@H](COP(=O)(O)OP(=O)(O)OP(=O)(O)/C=C/[C@H]2O[C@@H](n3c[n+](C)c4c(=O)[nH]c(N)nc43)C(O)C2CN(C)C(C)=O)O[C@H]1n1cnc2c(N)ncnc21 (stereo partly drawn) [Compound 31]	239 nM	115 µg	–	95.7%	–
COC1C(OP(=O)(O)OC[C@H]2O[C@@H](n3cnc4c(=O)[nH]c(N)nc43)C(O)C2O)[C@@H](COP(=O)(O)OP(=O)(O)OP(=O)(O)/C=C/[C@H]2O[C@@H](n3c[n+](C)c4c(=O)[nH]c(N)nc43)CC2OC)O[C@H]1n1cnc2c(N)ncnc21 (stereo partly drawn) [Compound 13]	265 nM	112 µg	–	95.4%	–
COC1C(OP(=O)(O)OC[C@H]2O[C@@H](n3cnc4c(=O)[nH]c(N)nc43)C(O)C2O)[C@@H](COP(=O)(O)OP(=O)(O)OP(=O)(O)/C=C/[C@H]2O[C@@H](n3c[n+](C)c4c(=O)[nH]c(N)nc43)C(F)C2O)O[C@H]1n1cnc2c(N)ncnc21 (stereo partly drawn) [Compound 16]	269 nM	114 µg	–	95.8%	–
COC1[C@@H](OP(=O)(O)OC[C@H]2O[C@@H](n3cnc4c(=O)[nH]c(N)nc43)C(O)[C@H]2O)[C@@H](/C=C\P(=O)(O)OP(=O)(O)OP(=O)(O)/C=C\[C@H]2O[C@@H](n3c[n+](C)c4c(=O)[nH]c(N)nc43)[C@@H](O)C2O)O[C@H]1n1cnc2c(N)ncnc21 (stereo partly drawn) [Example 5]	395 nM	102 µg	significantly lower than those of Comparative Example 1	90.2%	significantly lower than those of Comparative Example 1
COCCOC1C(O)[C@H](n2c[n+](C)c3c(=O)[nH]c(N)nc32)O[C@@H]1/C=C/P(=O)(O)OP(=O)(O)OP(=O)(O)OC[C@H]1O[C@@H](n2cnc3c(N)ncnc32)C(OC)C1OP(=O)(O)OC[C@H]1O[C@@H](n2cnc3c(=O)[nH]c(N)nc32)C(O)C1O (stereo partly drawn) [Compound 10]	218 nM	124 µg	–	96.4%	–
COC1C(OP(=O)(O)OC[C@H]2O[C@@H](n3cnc4c(=O)[nH]c(N)nc43)C(O)C2O)[C@@H](/C=C/P(=O)(O)OP(=O)(O)OP(=O)(O)OC[C@H]2O[C@@H](n3c[n+](C)c4c(=O)[nH]c(N)nc43)C(O)C2O)O[C@H]1n1cnc2c(N)ncnc21 (stereo partly drawn) [Example 3]	240 nM	122 µg	–	95.3%	–
COC1C(OP(=O)(O)/C=C/[C@H]2O[C@@H](n3cnc4c(=O)[nH]c(N)nc43)C(O)C2O)[C@@H](COP(=O)(O)OP(=O)(O)OP(=O)(O)OC[C@H]2O[C@@H](n3c[n+](C)c4c(=O)[nH]c(N)nc43)C(O)C2O)O[C@H]1n1cnc2c(N)ncnc21 (stereo partly drawn) [Example 1]	313 nM	117 µg	–	96.4%	–
COC1[C@@H](OP(=O)(O)/C=C/[C@H]2O[C@@H](n3cnc4c(=O)[nH]c(N)nc43)C(O)[C@H]2O)[C@@H](/C=C\P(=O)(O)OP(=O)(O)OP(=O)(O)OC[C@H]2O[C@@H](n3c[n+](C)c4c(=O)[nH]c(N)nc43)[C@@H](O)C2O)O[C@H]1n1cnc2c(N)ncnc21 (stereo partly drawn) [Example 6]	362 nM	96 µg	significantly lower than those of Comparative Example 1	87.3%	significantly lower than those of Comparative Example 1
COCC1C(O)[C@H](n2c[n+](C)c3c(=O)[nH]c(N)nc32)O[C@@H]1/C=C/P(=O)(O)OP(=O)(O)OP(=O)(O)OC[C@H]1O[C@@H](n2cnc3c(N)ncnc32)C(OC)C1OP(=O)(O)OC[C@H]1O[C@@H](n2cnc3c(=O)[nH]c(N)nc32)C(O)C1O (stereo partly drawn) [Compound 11]	246 nM	116 µg	–	95.7%	–
